Values after ≈ are worked out from the molar mass of the structure shown.
Assays:
[1] = test system: Acinetobacter baumannii (Abl, from a patient); assay: microbe, parasite or virus in culture; format: cell-based
E. coli (ATCC 35218) = assay: microbe, parasite or virus in culture; format: cell-based; details: for MIC80: Escherichia coli, ATCC35218, read-out: MIC80 E. coli, E. coli ATCC 35218; for MIC80 E. coli: E. coli ATCC 35218
[2] = test system: Coagulase negative Staphylococcus; assay: MIC80 on coagulase negative Staphylococcus; format: cell-based
Procedure: (§1) To further characterize the compounds, the minimal inhibitory concentration (MIC80) were determined for selected compounds. MIC80 is defined as the compound concentration at which ≥80% bacterial growth is inhibited compare to untreated controls. Meanwhile, for the selected compounds, cytotoxicity assays (CC50) were performed on a HepG2-derived hepatoblastoma cell line (HEPDES19). […] For the MIC80 measurements, a 1.5 fold dilution series of the compounds was prepared in Mueller-Hinton II broth. […] For CC50 evaluation, soluble tetrazolium dye (MTS) was used to measure mitochondrial toxicity in a human hepatoblastoma cell line (18). The bacteria (E. coli, S. saprophyticus and A. baumannii) used in MIC80 measurements were the same as that in the primary screening, but for Staphylococcus, S. aureus is used primarily because it is a common pathogen in Staphylococcaeae family, while S. saprophyticus is part of the normal human flora. S. aureus (ATCC 29213) is methicillin-sensitive Staphylococcus aureus (MSSA) strain and it was used as a model strain to measure the MIC80.
(§2) It was also tested whether compounds #63 and #285 can inhibit other coagulase-negative Staphylococcus (CNS) including S. epidermidis, S. hominis, etc. […] .

[3] = test system: S. aureus and/or S. saprophyticus; assay: MIC80 on S. aureus and/or S. saprophyticus; format: cell-based; details: read-out: MIC80 against S. aureus and/or S. saprophyticus
Procedure: as §1

[4] = test system: S. aureus ATCC strains and methicillin-resistant Staphylococcus aureus (MRSA); assay: MIC80 on S. aureus ATCC strains and MRSA; format: cell-based
Procedure: (§3) To further characterize the compounds, the minimal inhibitory concentration (MIC80) were determined for selected compounds. MIC80 is defined as the compound concentration at which ≥80% bacterial growth is inhibited compare to untreated controls. Meanwhile, for the selected compounds, cytotoxicity assays (CC50) were performed on a HepG2-derived hepatoblastoma cell line (HEPDES19). […] For CC50 evaluation, soluble tetrazolium dye (MTS) was used to measure mitochondrial toxicity in a human hepatoblastoma cell line (18). The bacteria (E. coli, S. saprophyticus and A. baumannii) used in MIC80 measurements were the same as that in the primary screening, but for Staphylococcus, S. aureus is used primarily because it is a common pathogen in Staphylococcaeae family, while S. saprophyticus is part of the normal human flora.

S. aureus (ATCC 29213) = assay: MIC80 on S. aureus; format: cell-based, Staphylococcus aureus; details: Staphylococcus aureus, ATCC 29213 / MSSA, read-out: MIC80 S. aureus, S. aureus ATCC 29213 (MSSA); ≥80% growth inhibition
[5] = test system: HepG2-derived hepatoblastoma cell line (HEPDES19); assay: Cytotoxicity assay (CC50), MTS; format: cell-based, human; details: HEPDES19 cells
Procedure: as §3

[6] = Cytotoxicity assay (CC50), MTS; format: cell-based, human; details: human, HepG2-derived hepatoblastoma cell line (HEPDES19), HEPDES19 cells
Procedure: as §3

[7] = test system: Staphylococcus epidermidis; assay: MIC80 on S. epidermidis; format: cell-based
Procedure: as §1, §2

Staphylococcus hominis = assay: MIC80 on S. hominis; format: cell-based
Procedure: as §1, §2

Morganella morganii = assay: microbe, parasite or virus in culture; format: cell-based
Procedure: as §3
(§4) All these MDR-bacteria are at least resistant to two classes of the antibiotics among five groups and/or specific antibiotics including quinolones/fluorquinolones, carbapenems, cephalosporins, aminoglycosides and piperacillin-tazobactam.

MDR Enterobacteriaceae = assay: organism not typed; format: cell-based
Procedure: as §3, §4

[8] = test system: Enterobacter cloacae complex; assay: microbe, parasite or virus in culture; format: cell-based
Procedure: as §3, §4

MDR E. coli = assay: microbe, parasite or virus in culture; format: cell-based
Procedure: as §3, §4

Klebsiella pneumoniae = assay: microbe, parasite or virus in culture; format: cell-based
Procedure: as §3, §4

Citrobacter koseri = assay: microbe, parasite or virus in culture; format: cell-based
Procedure: as §3, §4

SMILES: COc1ccccc1C(=O)Oc1cccccc1=O [Compound 285]
- MIC80 ([1]; Acinetobacter baumannii, read-out: MIC80 A. baumannii, A. baumannii Ab1, MDR patient isolate): 44.4 µM (≈ 11.4 µg/mL)
- MIC80 (E. coli (ATCC 35218)): 100 µM (≈ 25.6 µg/mL)
- MIC80 ([2]; CNS1 (Coagulase negative Staphylococcus)): 9.9 µM (≈ 2.54 µg/mL)
- MIC80 ([2]; CNS2 (Coagulase negative Staphylococcus)): 6.6 µM (≈ 1.69 µg/mL)
- MIC80 [3]: < 20 µM
- MIC80 ([4]; ATCC 25923 / MRSA, S. aureus ATCC 25923): 8.8 µM (≈ 2.26 µg/mL)
- MIC80 ([4]; ATCC 29213 / MRSA, S. aureus ATCC 29213 (Table 3)): 8.8 µM (≈ 2.26 µg/mL)
- MIC80 ([4]; BAA-976 / MRSA, S. aureus ATCC BAA 976): 8.8 µM (≈ 2.26 µg/mL)
- MIC80 ([4]; BAA-977 / MRSA, S. aureus ATCC BAA 977): 8.8 µM (≈ 2.26 µg/mL)
- MIC80 ([4]; MRSA, Sa1 (MRSA)): 8.8 µM (≈ 2.26 µg/mL)
- MIC80 ([4]; MRSA, Sa2 (MRSA)): 8.8 µM (≈ 2.26 µg/mL)
- MIC80 ([4]; MRSA, Sa3 (MRSA)): 8.8 µM (≈ 2.26 µg/mL)
- MIC80 ([4]; MRSA, Sa5 (MRSA)): 8.8 µM (≈ 2.26 µg/mL)
- MIC80 ([4]; MRSA, Sa6 (MRSA)): 8.8 µM (≈ 2.26 µg/mL)
- MIC80 ([4]; MRSA, Sa7 (MRSA)): 8.8 µM (≈ 2.26 µg/mL)
- MIC80 ([4]; MRSA, Sa8 (MRSA)): 8.8 µM (≈ 2.26 µg/mL)
- MIC80 ([4]; MRSA, Sa9 (MRSA)): 8.8 µM (≈ 2.26 µg/mL)
- MIC80 ([4]; MRSA, Sa10 (MRSA)): 8.8 µM (≈ 2.26 µg/mL)
- MIC80 ([4]; MRSA, Sa11 (MRSA)): 8.8 µM (≈ 2.26 µg/mL)
- MIC80 ([4]; MRSA, Sa12 (MRSA)): 8.8 µM (≈ 2.26 µg/mL)
- MIC80 ([4]; MRSA, Sa14 (MRSA)): 8.8 µM (≈ 2.26 µg/mL)
- MIC80 ([4]; MRSA, Sa15 (MRSA)): 5.9 µM (≈ 1.51 µg/mL)
- MIC80 ([4]; MRSA, Sa16 (MRSA)): 8.8 µM (≈ 2.26 µg/mL)
- MIC80 ([4]; MRSA, Sa17 (MRSA)): 8.8 µM (≈ 2.26 µg/mL)
- MIC80 ([4]; MRSA, Sa18 (MRSA)): 8.8 µM (≈ 2.26 µg/mL)
- MIC80 ([4]; MRSA, Sa19 (MRSA)): 8.8 µM (≈ 2.26 µg/mL)
- MIC80 ([4]; MRSA, Sa20 (MRSA)): 13.2 µM (≈ 3.38 µg/mL)
- MIC80 ([4]; MRSA, Sa21 (MRSA)): 5.9 µM (≈ 1.51 µg/mL)
- MIC80 ([4]; MRSA, Sa22 (MRSA)): 5.9 µM (≈ 1.51 µg/mL)
- MIC80 ([4]; MRSA, Sa23 (MRSA)): 8.8 µM (≈ 2.26 µg/mL)
- MIC80 (S. aureus (ATCC 29213)): 10.3 µM (≈ 2.64 µg/mL)
- CC50 [5]: ≥ 100 µM
- CC50 [6]: > 50 µM
- MIC80 ([7]; Se1 (Staphylococcus epidermidis)): 8.8 µM (≈ 2.26 µg/mL)
- MIC80 ([7]; Se2 (Staphylococcus epidermidis)): 6.6 µM (≈ 1.69 µg/mL)
- MIC80 ([7]; Se3 (Staphylococcus epidermidis)): 6.6 µM (≈ 1.69 µg/mL)
- MIC80 ([7]; Se4 (Staphylococcus epidermidis)): 9.9 µM (≈ 2.54 µg/mL)
- MIC80 ([7]; Se5 (Staphylococcus epidermidis)): 9.9 µM (≈ 2.54 µg/mL)
- MIC80 (Staphylococcus hominis; Sh1 (Staphylococcus hominis)): 9.9 µM (≈ 2.54 µg/mL)
- MIC80 (Staphylococcus hominis; Sh2 (Staphylococcus hominis)): 9.9 µM (≈ 2.54 µg/mL)
- MIC80 (Staphylococcus hominis; Sh3 (Staphylococcus hominis)): 6.6 µM (≈ 1.69 µg/mL)

SMILES: CCn1cc(C(=O)O)c(=O)c2cnc(N3CCN(C(=O)NC)CC3)nc21 [Compound 322]
- MIC80 (Morganella morganii; Mm1 (Morganella morganii)): >100 µM
- inhibition of MDR Enterobacteriaceae (in words) (MDR Enterobacteriaceae; except one MDR E. coli and one Enterobacter cloacae complex strain): No obvious inhibition
- MIC80 ([8]; Ecc1 (Enterobacter cloacae complex)): 44.4 µM (≈ 16 µg/mL)
- MIC80 ([8]; one Enterobacter cloacae complex strain): 66.7 µM (≈ 24 µg/mL)
- MIC80 (MDR E. coli; Ec1 (MDR E. coli)): >100 µM
- MIC80 (MDR E. coli; Ec2 (MDR E. coli)): 66.7 µM (≈ 24 µg/mL)
- MIC80 (MDR E. coli; Ec3 (MDR E. coli)): >100 µM
- MIC80 (MDR E. coli; Ec4 (MDR E. coli)): >100 µM
- MIC80 (MDR E. coli; Ec5 (MDR E. coli)): >100 µM
- MIC80 (MDR E. coli; one MDR E. coli): 44.4 µM (≈ 16 µg/mL)
- MIC80 (Klebsiella pneumoniae; Kp1 (Klebsiella pneumonia)): >100 µM
- MIC80 (Klebsiella pneumoniae; Kp6 (Klebsiella pneumonia)): >100 µM
- MIC80 (Citrobacter koseri; Ck1 (Citrobacter koseri)): >100 µM
- MIC80 A. baumannii ([1]; A. baumannii Ab1, MDR patient isolate): >100 µM
- inhibition of E. coli (in words) (E. coli (ATCC 35218)): only modestly inhibited
- MIC80 E. coli (E. coli (ATCC 35218)): 29.6 µM (≈ 10.7 µg/mL)
- CC50 [5]: ≥ 100 µM

SMILES: O=C(Sc1cccccc1=O)c1ccccc1 [Compound 364]
- MIC80 (Morganella morganii; Morganella morganii): > 33.3 µM
- MIC80 (MDR Enterobacteriaceae; read-out: MIC80 on MDR Enterobacteriaceae): ≤ 20 µM
- MIC80 ([8]; Enterobacter cloacae): 33.3 µM (≈ 8.07 µg/mL)
- MIC80 (MDR E. coli; Escherichia coli, Ec1 (MDR E. coli)): 33.3 µM (≈ 8.07 µg/mL)
- MIC80 (MDR E. coli; Escherichia coli, Ec2 (MDR E. coli)): 14.8 µM (≈ 3.59 µg/mL)
- MIC80 (MDR E. coli; Escherichia coli, Ec3 (MDR E. coli)): 22.2 µM (≈ 5.38 µg/mL)
- MIC80 (MDR E. coli; Escherichia coli, Ec4 (MDR E. coli)): 33.3 µM (≈ 8.07 µg/mL)
- MIC80 (Klebsiella pneumoniae; Klebsiella pneumoniae, Kp1 (Klebsiella pneumonia)): > 33.3 µM
- MIC80 (Klebsiella pneumoniae; Klebsiella pneumoniae, Kp6 (Klebsiella pneumonia)): > 33.3 µM
- MIC80 (Citrobacter koseri; Citrobacter koseri): 33.3 µM (≈ 8.07 µg/mL)
- MIC80 E. coli (E. coli (ATCC 35218)): 19.8 µM (≈ 4.8 µg/mL)
- MIC80 (E. coli (ATCC 35218)): < 30 µM
- MIC80 [3]: < 20 µM
- MIC80 (S. aureus (ATCC 29213)): 13.2 µM (≈ 3.2 µg/mL)
- CC50 [5]: 67 µM
- CC50 [6]: > 50 µM

Reference: US12502362B2, “Inhibitors of nucleotidyltransferase superfamily enzymes as antibiotics” (priority 2017, dated 2025)
